Where two headings read alike, the source gives them in different places.
Key:
CYP77A4 [1] = target: T1, CYP77A4 (Arabidopsis thaliana, UniProt Q9LZ31); conditions: for amount of conversion of fatty acid / conversion as substrate of CYP77A4 (in words): 100 μM fatty acid, 10 pmole CYP77A4, 27° C., 15 minutes (FIG. 4); for epoxide product formed by CYP77A4 (GC-MS identification): 100 μM substrate, 15-20 min
T1 sequence (Q9LZ31 1-512): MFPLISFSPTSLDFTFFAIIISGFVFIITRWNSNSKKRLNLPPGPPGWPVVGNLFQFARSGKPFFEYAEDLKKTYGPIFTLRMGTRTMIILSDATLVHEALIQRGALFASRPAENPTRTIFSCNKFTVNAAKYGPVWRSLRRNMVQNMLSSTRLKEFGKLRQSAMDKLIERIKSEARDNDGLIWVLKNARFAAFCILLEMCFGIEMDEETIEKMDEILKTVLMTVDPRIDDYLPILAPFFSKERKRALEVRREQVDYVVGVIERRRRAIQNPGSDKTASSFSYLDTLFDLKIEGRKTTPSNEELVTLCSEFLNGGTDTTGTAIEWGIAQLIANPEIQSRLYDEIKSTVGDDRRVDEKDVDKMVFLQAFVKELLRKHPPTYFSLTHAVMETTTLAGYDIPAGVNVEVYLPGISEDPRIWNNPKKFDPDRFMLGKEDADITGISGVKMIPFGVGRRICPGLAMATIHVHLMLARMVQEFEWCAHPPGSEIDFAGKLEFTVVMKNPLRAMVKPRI

CYP77A4 [2] = target: T1, CYP77A4; assay type: biochemical; conditions: 4.5 pmoles CYP77A4, 5 min, calculated with Enzyme Kinetics (Sigma Plot); for Km: read-out: Km for metabolism by CYP77A4
CYP77A4 expression [3] = conditions: in vivo
CYP77A4 expression [4] = test: Induction of CYP77A4 expression by external factors, quantitative PCR on entire plantlets; conditions: after 5 hours; ethanol as control; qPCR (FIG. 3)
[5] = GC-MS analysis of metabolite fraction
[6] = 27° C., 10 pmole CYP77A4, NADPH
[7] = 100 μM, 15 minutes, 27° C., 10 pmole CYP77A4, NADPH

SMILES | amount of conversion of fatty acid (CYP77A4 [1]) | conversion as substrate of CYP77A4 (in words) (CYP77A4 [1]) | epoxide product formed by CYP77A4 (GC-MS identification) (CYP77A4 [1]; [6]) | Vmax for metabolism by CYP77A4 (CYP77A4 [2]) [nmol·min^−1·nmol^−1 P450] | Km (CYP77A4 [2]) [µM] | other results
CCCCCCCCCCCC(=O)O [C12:0, lauric acid] | about 35% | optimal substrate |  |  |  | share of omega-1 hydroxylated metabolite (CYP77A4 [1]; [5]): 53%; share of omega-2 hydroxylated metabolite (CYP77A4 [1]; [5]): 15.2%; share of omega-3 hydroxylated metabolite (CYP77A4 [1]; [5]): 7.6%; share of omega-4 hydroxylated metabolite (CYP77A4 [1]; [5]): 18.2%; share of omega-5 hydroxylated metabolite (CYP77A4 [1]; [5]): 6%
CCCCC/C=C\C/C=C\CCCCCCCC(=O)O [linoleic acid] |  | increasing order of conversion | 12-13 epoxy form of linolenic acid | 13±0.3 | 61 ± 3 | 
CC/C=C\C/C=C\C/C=C\CCCCCCCC(=O)O [linolenic acid] | about 20% | increasing order of conversion |  |  | 29 ± 4 | share of 12-13 mono-epoxy form among mono-epoxy products (CYP77A4 [1]; [7]): 87%; share of each of the other two mono-epoxy structures (CYP77A4 [1]; [7]): 6.5%
OC[C@@H](O)[C@@H](O)[C@H](O)[C@H](O)CO [mannitol] |  |  |  |  |  | induction of the expression of CYP77A4 (CYP77A4 expression [3]): ~20 fold; induction of the transcription of CYP77A4 (CYP77A4 expression [3]): 18 fold
CCCCCCCC/C=C\CCCCCCCC(=O)O [oleic acid] |  | increasing order of conversion | epoxy form (at position 9, 10) of oleic acid | 26±5 |  | 
CCC1(c2ccccc2)C(=O)NC(=O)NC1=O [phenobarbital] |  |  |  |  |  | induction of the expression of CYP77A4 (CYP77A4 expression [4]): 12 fold
